Assay results as given in ChEMBL document CHEMBL3102705, “Design, synthesis and investigation on the structure-activity relationships of N-substituted 2-aminothiazole derivatives as antitubercular agents” (Eur J Med Chem, 2014).
In brackets after ≈: the same amount, converted by molar mass.

Experiments:
Assay type in all cases: functional
[1] = system: Mycobacterium tuberculosis; test: Antitubercular activity against moxifloxacin-resistant Mycobacterium tuberculosis H37Rv ATCC 27294 assessed as growth inhibition after 16 to 24 hrs by microplate-Alamar Blue assay
[2] = system: Mycobacterium tuberculosis; test: Antitubercular activity against isoniazid-resistant Mycobacterium tuberculosis H37Rv ATCC 27294 assessed as growth inhibition after 16 to 24 hrs by microplate-Alamar Blue assay
[3] = system: Mycobacterium tuberculosis; test: Antitubercular activity against capreomycin-resistant Mycobacterium tuberculosis H37Rv ATCC 27294 assessed as growth inhibition after 16 to 24 hrs by microplate-Alamar Blue assay
[4] = system: Mycobacterium tuberculosis; test: Antitubercular activity against rifampin-resistant Mycobacterium tuberculosis H37Rv ATCC 27294 assessed as growth inhibition after 16 to 24 hrs by microplate-Alamar Blue assay

SMILES	MIC [1] [µM]	MIC [2] [µM]	MIC [3] [µM]	MIC [4] [µM]
Fc1ccc(C(F)(F)F)cc1-c1csc(Nc2ccc(Cl)cc2)n1	15.5 (≈ 5.78 µg/mL)	10.4 (≈ 3.88 µg/mL)	17.4 (≈ 6.49 µg/mL)	10.9 (≈ 4.06 µg/mL)
Fc1ccc(C(F)(F)F)cc1-c1csc(Nc2cc(Cl)cc(Cl)c2)n1	12 (≈ 4.89 µg/mL)	7.1 (≈ 2.89 µg/mL)	12 (≈ 4.89 µg/mL)	9.7 (≈ 3.95 µg/mL)
NNC(=O)c1ccncc1 [ISONIAZID]	3.6 (≈ 0.494 µg/mL)	> 8	0.81 (≈ 0.111 µg/mL)	0.85 (≈ 0.117 µg/mL)
O=[N+]([O-])c1cn2c(n1)OC[C@@H](OCc1ccc(OC(F)(F)F)cc1)C2 [PRETOMANID]	0.88 (≈ 0.316 µg/mL)	0.43 (≈ 0.154 µg/mL)	1.26 (≈ 0.453 µg/mL)	0.51 (≈ 0.183 µg/mL)
CO[C@H]1/C=C/O[C@@]2(C)Oc3c(C)c(O)c4c(O)c(c(/C=N/N5CCN(C)CC5)c(O)c4c3C2=O)NC(=O)/C(C)=C\C=C\[C@H](C)[C@H](O)[C@@H](C)[C@@H](O)[C@@H](C)[C@H](OC(C)=O)[C@@H]1C [RIFAMPIN]	0.14 (≈ 0.115 µg/mL)	0.06 (≈ 0.0494 µg/mL)	0.05 (≈ 0.0411 µg/mL)	> 4
